We go through two compounds from publication PMC12113998, “Exploring Multivalent Architectures for Binding and Stabilization of N-Acetylgalactosamine 6-Sulfatase” (Molecules, 2025).

Several values for one entry are separate records, joined by “and”; a condition that tells them apart may be missing. Equal entries are not always repeated. Marks after values point to notes of the source that are not given here.

Experiment [1] has as its target T1, rhGALNS VIMIZIM® (Homo sapiens, UniProt P34059).
T1 construct: purchased BioMarin (VIMIZIM, elosulfase alfa)
T1 sequence (P34059 27-522): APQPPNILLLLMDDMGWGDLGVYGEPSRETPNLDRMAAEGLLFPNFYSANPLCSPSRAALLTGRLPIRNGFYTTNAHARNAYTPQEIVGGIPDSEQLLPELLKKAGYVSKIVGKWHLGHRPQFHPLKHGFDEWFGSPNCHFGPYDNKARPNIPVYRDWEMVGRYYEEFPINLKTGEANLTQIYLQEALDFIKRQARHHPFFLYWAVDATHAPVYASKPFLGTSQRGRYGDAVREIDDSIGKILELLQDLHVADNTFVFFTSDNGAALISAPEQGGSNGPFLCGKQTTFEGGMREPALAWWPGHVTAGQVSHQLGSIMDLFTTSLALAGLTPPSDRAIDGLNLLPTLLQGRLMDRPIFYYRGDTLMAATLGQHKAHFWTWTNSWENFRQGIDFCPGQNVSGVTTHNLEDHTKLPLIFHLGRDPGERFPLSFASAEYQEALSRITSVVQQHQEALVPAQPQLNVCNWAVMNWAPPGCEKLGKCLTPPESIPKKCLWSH
Put plainly: Stabilization of rhGALNS under thermal denaturation (48 °C, 40 and 60 min). Format: biochemical. The protocol:
(§1) The promising IC50 values observed for 1 and 36 prompted us to assess their effects on the commercially available wild-type recombinant GALNS (rhGALNS VIMIZIM®). […] Building on these findings, we investigated the potential stabilizing effect of these compounds on the tertiary structure of GALNS through a thermal denaturation study. rhGALNS was preincubated with varying concentrations of the compounds before being subjected to heating at 48 °C for 40 and 60 min. The relative enzyme activity was expressed as the ratio between the activity measured after thermal denaturation at 48 °C and that obtained under physiological conditions at 37 °C.
Figure 3 Stabilization of rhGALNS VIMIZIM® in the presence of 1 (A) and 36 (B) was evaluated in vitro by using heat inactivation. Relative enzymatic activity after thermal treatment (48 °C) for 40 and 60 min at the indicated inhibitor concentrations (μM) with respect to the corresponding assay at 37 °C (no denaturation). Data for control were obtained as above except that no inhibitor was present. Experiments were performed in triplicate (see Supporting Information). […]
The thermal stability induced by 1 and 36 against rhGALNS VIMIZIM® was determined by measuring the hydrolysis rate with 4-methylumbelliferyl-β-galactoside-6-sulfate.Na (6.66 mM) after denaturation of enzyme at 48 °C for 40 minutes or 60 minutes with or without (Ctrl) different concentrations of compounds. […]
After incubation 20 µL of 4-methylumbelliferyl-β-galactoside-6-sulfate.Na substrate solution in Na-Acetate/acetic acid buffer (0.1 M/0.1 M, pH 4.3) containing 0.1 M NaCl, 0.02% (w/v) NaN3 and 5 mM Pb-acetate was added. […] Fluorescence was measured in a SpectraMax M2 microplate reader (Molecular-Devices) using a 365 nm excitation wavelength and a 435 nm emission wavelength. […]
Figure S57. Activity of rhGALNS VIMIZIM® was determined after incubation for 0 minutes or 40 minutes or 60 minutes at 48 °C with or without (Ctrl) different concentrations of 1 by measuring the hydrolysis rate 4-methylumbelliferyl-β-galactoside-6-sulfate.Na. […]

Experiment [2] addresses T2, recombinant human GALNS (rhGALNS VIMIZIM®) (Homo sapiens, UniProt P34059).
T2 construct: purchased BioMarin (VIMIZIM, elosulfase alfa)
T2 sequence (P34059 27-522): T1 sequence (P34059 27-522)
Put plainly: IC50 on recombinant human GALNS (rhGALNS VIMIZIM). Format: biochemical. On the procedure: as §1
The IC 50 values of inhibitors against human GALNS in leukocytes isolated from healthy donors or against recombinant human GALNS (rhGALNS VIMIZIM®) were determined by measuring the initial hydrolysis rate with 4 -methylumbelliferyl-β-galactoside-6-sulfate.Na (6.66 mM) at different concentrations of inhibitors.
Data obtained were fitted to the following equation using the OriginPro 2021 (Version 2021. OriginLab Corporation, Northampton, MA, USA): where Vi/Vo, represent the ratio between the activity measured in the presence of the inhibitor (Vi) and the activity of the control without the inhibitor (Vo), “x” the inhibitor concentration, Max and Min, the maximal and minimal enzymatic activity observed, respectively. […]

Experiment [3] addresses T3, N-acetylgalactosamine-6-sulfatase (GALNS) (Homo sapiens, UniProt P34059).
T3 construct: Isolated leukocytes were disrupted by sonication; from tissue; host or cells: human leukocytes from healthy donors (sonicated homogenate)
T3 sequence (P34059 27-522): T1 sequence (P34059 27-522)
Also noted: method as in doi:10.1039/C6RA15806D. The following applies: cited from earlier work.

With `O=C(NC(COCc1cn(CCCCCCN2CC(O)C(O)C2CO)nn1)(COCc1cn(CCCCCCN2CC(O)C(O)C2CO)nn1)COCc1cn(CCCCCCN2CC(O)C(O)C2CO)nn1)c1cc(C(=O)NC(COCc2cn(CCCCCCN3CC(O)C(O)C3CO)nn2)(COCc2cn(CCCCCCN3CC(O)C(O)C3CO)nn2)COCc2cn(CCCCCCN3CC(O)C(O)C3CO)nn2)cc(C(=O)NC(COCc2cn(CCCCCCN3CC(O)C(O)C3CO)nn2)(COCc2cn(CCCCCCN3CC(O)C(O)C3CO)nn2)COCc2cn(CCCCCCN3CC(O)C(O)C3CO)nn2)c1` (centres unmarked) [Compound 1], the “enzyme activity with respect to the control after thermal denaturation” value in experiment [1] (500 µM compound, both time points (40 and 60 min)) is “around two-fold”. The IC50 is 110 µM in experiment [2] and 47 ± 5 µM in experiment [3] (human leukocyte extracts). Also, the “% Inhibition (1 mM)” value in experiment [3] (1 mM inhibitor, human leukocyte extracts) is 94 ^[a] %. In addition, the rp/n in experiment [3] (positive MVE as previously reported) is 9.2 and 6.5–9.2.
As for `OCC1C(O)C(O)CN1CCCCCCn1cc(COCC(COCc2cn(CCCCCCN3CC(O)C(O)C3CO)nn2)(COCc2cn(CCCCCCN3CC(O)C(O)C3CO)nn2)NCc2cc(CNC(COCc3cn(CCCCCCN4CC(O)C(O)C4CO)nn3)(COCc3cn(CCCCCCN4CC(O)C(O)C4CO)nn3)COCc3cn(CCCCCCN4CC(O)C(O)C4CO)nn3)cc(CNC(COCc3cn(CCCCCCN4CC(O)C(O)C4CO)nn3)(COCc3cn(CCCCCCN4CC(O)C(O)C4CO)nn3)COCc3cn(CCCCCCN4CC(O)C(O)C4CO)nn3)c2)nn1` (centres unmarked) [Compound 36], the “enzyme activity with respect to the control after thermal denaturation” value in experiment [1] (30 µM compound, 40 min) was found to be 1.3 fold; in experiment [1] (30 µM compound, 60 min), 2.4 fold. Besides, the 50% inhibitory concentration (IC50) in experiment [2] was found to be 30 µM.

What is called IC50 is the concentration that gives 50% inhibition.
